The target of experiment [1] is LIM domain kinase 2 (Homo sapiens) (UniProt P53671). The experiment in a line: Selectivity interaction (LanthaScreen Eu Kinase Binding Assay) EUB0001632a LIMK2. The note with it: at 10 µM.
The target in experiment [2] is Serine/threonine-protein kinase MRCK alpha (Homo sapiens) (UniProt Q5VT25). The experiment in a line: Selectivity interaction (KinomeScan (DiscoverX)) EUB0001619a CDC42BPA. The note with it: at 1 µM.
Experiment [3] addresses T1, Tyrosine-protein kinase receptor TYRO3 (Homo sapiens) (UniProt Q06418).
T1 sequence (whole entry): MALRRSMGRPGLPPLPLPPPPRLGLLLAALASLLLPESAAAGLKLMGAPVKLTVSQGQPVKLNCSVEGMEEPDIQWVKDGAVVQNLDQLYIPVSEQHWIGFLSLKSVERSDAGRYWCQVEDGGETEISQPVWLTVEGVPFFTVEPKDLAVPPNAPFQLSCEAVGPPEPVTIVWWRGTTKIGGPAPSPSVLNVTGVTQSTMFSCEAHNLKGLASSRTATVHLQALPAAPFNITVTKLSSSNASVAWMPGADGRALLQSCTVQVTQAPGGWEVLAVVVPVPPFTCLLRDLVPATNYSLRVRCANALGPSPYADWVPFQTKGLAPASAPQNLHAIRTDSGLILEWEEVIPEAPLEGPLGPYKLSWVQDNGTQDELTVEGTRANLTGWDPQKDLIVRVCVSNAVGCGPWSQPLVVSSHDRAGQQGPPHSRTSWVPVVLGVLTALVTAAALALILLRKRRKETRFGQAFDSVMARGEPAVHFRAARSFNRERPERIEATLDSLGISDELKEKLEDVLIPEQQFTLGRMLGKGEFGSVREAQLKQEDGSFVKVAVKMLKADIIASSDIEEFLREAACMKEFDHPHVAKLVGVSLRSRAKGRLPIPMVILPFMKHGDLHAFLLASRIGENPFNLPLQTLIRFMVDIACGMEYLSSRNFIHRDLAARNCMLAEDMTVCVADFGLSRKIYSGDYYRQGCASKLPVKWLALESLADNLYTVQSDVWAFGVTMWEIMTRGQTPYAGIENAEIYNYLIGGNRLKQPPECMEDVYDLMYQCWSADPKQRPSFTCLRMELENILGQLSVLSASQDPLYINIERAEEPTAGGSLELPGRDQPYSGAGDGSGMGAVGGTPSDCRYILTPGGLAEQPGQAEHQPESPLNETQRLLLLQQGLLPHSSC
The conditions noted are these: at 10 µM.

Experiment [4] addresses T2, Serine/threonine-protein kinase ULK3 (Homo sapiens) (UniProt Q6PHR2).
T2 sequence (whole entry): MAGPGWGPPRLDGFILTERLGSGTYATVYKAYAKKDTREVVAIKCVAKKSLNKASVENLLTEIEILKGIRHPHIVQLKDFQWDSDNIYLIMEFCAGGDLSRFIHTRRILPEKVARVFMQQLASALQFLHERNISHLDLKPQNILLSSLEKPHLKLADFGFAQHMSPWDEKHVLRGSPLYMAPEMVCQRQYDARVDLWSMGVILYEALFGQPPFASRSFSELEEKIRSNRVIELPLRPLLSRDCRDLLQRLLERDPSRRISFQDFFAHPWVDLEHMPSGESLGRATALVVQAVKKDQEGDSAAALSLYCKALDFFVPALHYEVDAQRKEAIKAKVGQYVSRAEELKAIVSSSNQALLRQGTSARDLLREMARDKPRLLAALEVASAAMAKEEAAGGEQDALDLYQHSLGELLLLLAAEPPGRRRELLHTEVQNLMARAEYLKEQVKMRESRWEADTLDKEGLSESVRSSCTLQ
The conditions noted are these: at 10 µM.

Experiment [5] addresses Glycogen synthase kinase-3 alpha (Homo sapiens, UniProt P49840). The experiment in a line: Selectivity interaction (Kinase counterscreening (biochemical assay)) EUB0000604a GSK3A.
Experiment [6] addresses Tyrosine-protein kinase Fer (Homo sapiens) (UniProt P16591). The experiment in a line: Selectivity interaction (ActivX KiNativ screen (kinase selectivity in THP-1 cell lysates)) EUB0000639a FER. Format: subcellular. The note with it: lysate, at 0.04 µM.
Experiment [7] deals with Mitogen-activated protein kinase 14 (Homo sapiens, UniProt Q16539). The experiment in a line: Selectivity interaction (Enzymatic assay) EUB0001199aCl MAPK14.
Experiment [8] concerns the target Cyclin-dependent kinase 5 (Homo sapiens, UniProt Q00535). The experiment in a line: Selectivity interaction (Ambit KINOMEscan and KiNATiv profiling in Jurkat cells) EUB0000090b CDK5. The conditions noted are these: at 1 µM. Format: cell-based.
Experiment [9] concerns the target Mitogen-activated protein kinase 1 (Homo sapiens, UniProt P28482). The experiment in a line: Selectivity interaction (KinomeScan (DiscoverX)) EUB0001049a MAPK1. The note with it: at 1 µM.
Experiment [10] has as its target Proto-oncogene tyrosine-protein kinase receptor Ret (Homo sapiens, UniProt P07949). The experiment in a line: Selectivity interaction (Upstate Kinase Profiler service (Millipore)) EUB0000056c RET. The note with it: at 1 µM.
The next experiment deals with Histamine H3 receptor (Homo sapiens, UniProt Q9Y5N1). The experiment in a line: Selectivity interaction (Human histamine H3 receptor binding assay ) EUB0000877a HRH3.
In experiment [11] the target is Mitogen-activated protein kinase kinase kinase 20 (Homo sapiens) (UniProt Q9NYL2). The experiment in a line: Selectivity interaction (KinomeScan (DiscoverX)) EUB0000655a MAP3K20. The note with it: at 10 µM.
Experiment [12] deals with Cyclin-dependent kinase 15 (Homo sapiens) (UniProt Q96Q40). The experiment in a line: Selectivity interaction (KinomeScan (DiscoverX)) EUB0000618a CDK15. The conditions noted are these: at 10 µM.
For experiment [13], the target named is T3, 5-hydroxytryptamine receptor 3A (Homo sapiens) (UniProt P46098).
T3 sequence (whole entry): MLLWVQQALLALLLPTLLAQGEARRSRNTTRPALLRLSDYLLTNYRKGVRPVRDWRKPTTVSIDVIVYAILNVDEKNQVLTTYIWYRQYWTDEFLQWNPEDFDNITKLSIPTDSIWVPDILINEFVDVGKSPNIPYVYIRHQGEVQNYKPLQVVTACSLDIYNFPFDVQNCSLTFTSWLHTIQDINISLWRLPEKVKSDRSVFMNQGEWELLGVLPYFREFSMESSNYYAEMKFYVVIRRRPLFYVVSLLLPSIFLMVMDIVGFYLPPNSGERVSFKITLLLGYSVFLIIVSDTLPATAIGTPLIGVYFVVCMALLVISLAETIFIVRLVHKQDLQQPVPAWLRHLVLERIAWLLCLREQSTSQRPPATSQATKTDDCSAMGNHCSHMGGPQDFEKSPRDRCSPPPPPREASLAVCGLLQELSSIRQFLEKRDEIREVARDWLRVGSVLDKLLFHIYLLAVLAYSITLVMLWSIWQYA
The experiment in a line: Selectivity interaction (Panel of kinases, GPCRs, ion channels and transporters (enzymatic assay)) EUB0000266bCl HTR3A.

Sequence of Mitogen-activated protein kinase kinase kinase 20 (Homo sapiens) (Q9NYL2 2-800 limits assumed): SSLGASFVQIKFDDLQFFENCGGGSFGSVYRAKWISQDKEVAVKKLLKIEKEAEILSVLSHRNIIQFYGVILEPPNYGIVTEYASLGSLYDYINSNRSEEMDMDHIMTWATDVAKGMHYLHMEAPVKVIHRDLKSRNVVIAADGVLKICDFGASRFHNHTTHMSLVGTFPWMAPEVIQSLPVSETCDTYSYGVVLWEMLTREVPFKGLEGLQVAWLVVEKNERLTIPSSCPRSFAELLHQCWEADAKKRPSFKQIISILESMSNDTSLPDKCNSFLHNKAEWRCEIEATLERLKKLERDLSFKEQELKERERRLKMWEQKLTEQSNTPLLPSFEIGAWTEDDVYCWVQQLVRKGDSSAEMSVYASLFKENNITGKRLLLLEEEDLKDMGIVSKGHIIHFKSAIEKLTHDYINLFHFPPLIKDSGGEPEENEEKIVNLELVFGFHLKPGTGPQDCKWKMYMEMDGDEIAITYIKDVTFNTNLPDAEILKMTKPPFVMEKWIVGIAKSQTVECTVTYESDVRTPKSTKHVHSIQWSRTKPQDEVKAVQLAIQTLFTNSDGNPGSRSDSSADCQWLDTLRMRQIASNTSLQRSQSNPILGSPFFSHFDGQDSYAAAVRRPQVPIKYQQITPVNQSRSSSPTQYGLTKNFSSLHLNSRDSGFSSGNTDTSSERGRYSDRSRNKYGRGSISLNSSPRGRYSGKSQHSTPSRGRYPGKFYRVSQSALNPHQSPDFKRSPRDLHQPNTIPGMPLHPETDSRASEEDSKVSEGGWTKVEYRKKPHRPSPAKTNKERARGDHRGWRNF
Sequence of Mitogen-activated protein kinase 14 (Q16539 whole entry): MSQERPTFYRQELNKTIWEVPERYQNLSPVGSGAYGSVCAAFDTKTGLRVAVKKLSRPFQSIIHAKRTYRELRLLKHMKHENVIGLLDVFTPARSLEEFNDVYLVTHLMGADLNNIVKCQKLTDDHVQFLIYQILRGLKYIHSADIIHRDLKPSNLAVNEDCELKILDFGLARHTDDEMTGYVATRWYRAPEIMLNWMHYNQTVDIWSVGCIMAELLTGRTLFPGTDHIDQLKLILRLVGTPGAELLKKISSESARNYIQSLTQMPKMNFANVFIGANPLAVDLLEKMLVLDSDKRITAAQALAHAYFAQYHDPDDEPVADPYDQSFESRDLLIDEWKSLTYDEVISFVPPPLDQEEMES
Sequence of Mitogen-activated protein kinase 1 (P28482 whole entry): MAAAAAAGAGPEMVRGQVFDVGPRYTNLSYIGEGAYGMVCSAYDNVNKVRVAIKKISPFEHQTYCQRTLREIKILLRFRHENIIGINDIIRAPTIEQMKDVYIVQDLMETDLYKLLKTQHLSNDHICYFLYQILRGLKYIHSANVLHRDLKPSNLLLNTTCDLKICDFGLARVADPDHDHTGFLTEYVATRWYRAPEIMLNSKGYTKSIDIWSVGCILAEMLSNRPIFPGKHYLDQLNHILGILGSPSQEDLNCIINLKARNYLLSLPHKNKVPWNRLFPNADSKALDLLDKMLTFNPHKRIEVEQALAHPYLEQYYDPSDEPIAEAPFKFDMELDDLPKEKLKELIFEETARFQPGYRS
Sequence of Cyclin-dependent kinase 15 (Homo sapiens) (Q96Q40 whole entry): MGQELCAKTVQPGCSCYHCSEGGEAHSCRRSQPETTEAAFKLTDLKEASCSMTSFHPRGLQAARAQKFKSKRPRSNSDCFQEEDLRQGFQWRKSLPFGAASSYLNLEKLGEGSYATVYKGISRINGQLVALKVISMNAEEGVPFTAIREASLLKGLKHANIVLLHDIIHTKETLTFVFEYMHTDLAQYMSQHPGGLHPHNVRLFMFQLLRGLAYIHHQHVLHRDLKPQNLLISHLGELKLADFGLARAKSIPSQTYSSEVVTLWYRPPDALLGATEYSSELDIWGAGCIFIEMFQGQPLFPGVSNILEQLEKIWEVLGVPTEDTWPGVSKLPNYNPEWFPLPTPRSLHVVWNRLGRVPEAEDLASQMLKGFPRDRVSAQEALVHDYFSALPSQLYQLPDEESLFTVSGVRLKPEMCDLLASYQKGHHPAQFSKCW
Sequence of LIM domain kinase 2 (Homo sapiens) (P53671 whole entry, looked up, the tested form may be a part): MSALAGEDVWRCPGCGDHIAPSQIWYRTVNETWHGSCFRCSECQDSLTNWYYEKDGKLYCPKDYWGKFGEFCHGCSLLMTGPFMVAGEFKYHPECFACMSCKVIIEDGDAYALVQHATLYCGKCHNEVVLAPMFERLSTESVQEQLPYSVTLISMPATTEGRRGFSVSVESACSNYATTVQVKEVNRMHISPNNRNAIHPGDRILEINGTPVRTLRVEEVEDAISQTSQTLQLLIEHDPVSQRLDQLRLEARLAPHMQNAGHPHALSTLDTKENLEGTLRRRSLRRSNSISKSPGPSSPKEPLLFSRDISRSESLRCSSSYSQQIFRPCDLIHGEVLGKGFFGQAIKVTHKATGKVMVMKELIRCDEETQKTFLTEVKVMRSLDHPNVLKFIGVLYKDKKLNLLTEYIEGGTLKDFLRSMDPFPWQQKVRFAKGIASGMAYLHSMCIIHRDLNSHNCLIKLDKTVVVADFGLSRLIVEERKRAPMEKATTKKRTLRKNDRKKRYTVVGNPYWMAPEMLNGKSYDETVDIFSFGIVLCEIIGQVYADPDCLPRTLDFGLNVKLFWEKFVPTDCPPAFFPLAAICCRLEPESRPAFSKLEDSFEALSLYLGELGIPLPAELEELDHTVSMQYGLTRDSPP
Sequence of Cyclin-dependent kinase 5 (Q00535 whole entry, looked up): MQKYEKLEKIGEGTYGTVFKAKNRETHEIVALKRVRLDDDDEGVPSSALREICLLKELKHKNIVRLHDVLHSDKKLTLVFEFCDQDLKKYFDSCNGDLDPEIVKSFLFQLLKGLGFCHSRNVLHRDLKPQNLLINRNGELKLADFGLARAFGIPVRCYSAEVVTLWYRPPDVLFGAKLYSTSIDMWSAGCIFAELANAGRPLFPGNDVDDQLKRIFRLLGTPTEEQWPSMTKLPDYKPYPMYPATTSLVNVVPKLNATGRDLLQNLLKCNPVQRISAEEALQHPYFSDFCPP
Sequence of Histamine H3 receptor (Q9Y5N1 whole entry): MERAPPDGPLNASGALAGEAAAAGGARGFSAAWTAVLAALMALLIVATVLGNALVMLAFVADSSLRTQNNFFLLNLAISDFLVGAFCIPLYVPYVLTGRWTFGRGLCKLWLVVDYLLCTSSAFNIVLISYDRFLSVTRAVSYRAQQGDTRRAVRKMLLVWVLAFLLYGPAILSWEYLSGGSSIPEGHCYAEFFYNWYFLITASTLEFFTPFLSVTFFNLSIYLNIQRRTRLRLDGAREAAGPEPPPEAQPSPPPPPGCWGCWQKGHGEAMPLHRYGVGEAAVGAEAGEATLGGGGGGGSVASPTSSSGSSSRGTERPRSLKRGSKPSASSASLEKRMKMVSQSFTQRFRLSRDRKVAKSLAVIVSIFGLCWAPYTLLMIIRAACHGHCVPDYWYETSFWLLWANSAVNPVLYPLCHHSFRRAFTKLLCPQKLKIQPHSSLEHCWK
Sequence of Glycogen synthase kinase-3 alpha (P49840 whole entry): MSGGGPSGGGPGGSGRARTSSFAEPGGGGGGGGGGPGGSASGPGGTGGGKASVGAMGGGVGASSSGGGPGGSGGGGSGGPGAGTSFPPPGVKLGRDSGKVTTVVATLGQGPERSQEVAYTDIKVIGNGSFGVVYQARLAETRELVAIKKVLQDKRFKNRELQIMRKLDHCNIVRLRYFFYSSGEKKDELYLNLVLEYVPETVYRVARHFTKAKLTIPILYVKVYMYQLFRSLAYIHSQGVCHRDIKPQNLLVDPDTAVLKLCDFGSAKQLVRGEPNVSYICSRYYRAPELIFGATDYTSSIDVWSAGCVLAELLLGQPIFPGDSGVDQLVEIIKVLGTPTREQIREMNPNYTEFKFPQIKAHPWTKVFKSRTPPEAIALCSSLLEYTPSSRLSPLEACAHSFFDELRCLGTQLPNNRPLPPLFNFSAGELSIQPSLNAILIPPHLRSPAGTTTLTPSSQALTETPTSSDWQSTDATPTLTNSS
Sequence of Proto-oncogene tyrosine-protein kinase receptor Ret (P07949 whole entry): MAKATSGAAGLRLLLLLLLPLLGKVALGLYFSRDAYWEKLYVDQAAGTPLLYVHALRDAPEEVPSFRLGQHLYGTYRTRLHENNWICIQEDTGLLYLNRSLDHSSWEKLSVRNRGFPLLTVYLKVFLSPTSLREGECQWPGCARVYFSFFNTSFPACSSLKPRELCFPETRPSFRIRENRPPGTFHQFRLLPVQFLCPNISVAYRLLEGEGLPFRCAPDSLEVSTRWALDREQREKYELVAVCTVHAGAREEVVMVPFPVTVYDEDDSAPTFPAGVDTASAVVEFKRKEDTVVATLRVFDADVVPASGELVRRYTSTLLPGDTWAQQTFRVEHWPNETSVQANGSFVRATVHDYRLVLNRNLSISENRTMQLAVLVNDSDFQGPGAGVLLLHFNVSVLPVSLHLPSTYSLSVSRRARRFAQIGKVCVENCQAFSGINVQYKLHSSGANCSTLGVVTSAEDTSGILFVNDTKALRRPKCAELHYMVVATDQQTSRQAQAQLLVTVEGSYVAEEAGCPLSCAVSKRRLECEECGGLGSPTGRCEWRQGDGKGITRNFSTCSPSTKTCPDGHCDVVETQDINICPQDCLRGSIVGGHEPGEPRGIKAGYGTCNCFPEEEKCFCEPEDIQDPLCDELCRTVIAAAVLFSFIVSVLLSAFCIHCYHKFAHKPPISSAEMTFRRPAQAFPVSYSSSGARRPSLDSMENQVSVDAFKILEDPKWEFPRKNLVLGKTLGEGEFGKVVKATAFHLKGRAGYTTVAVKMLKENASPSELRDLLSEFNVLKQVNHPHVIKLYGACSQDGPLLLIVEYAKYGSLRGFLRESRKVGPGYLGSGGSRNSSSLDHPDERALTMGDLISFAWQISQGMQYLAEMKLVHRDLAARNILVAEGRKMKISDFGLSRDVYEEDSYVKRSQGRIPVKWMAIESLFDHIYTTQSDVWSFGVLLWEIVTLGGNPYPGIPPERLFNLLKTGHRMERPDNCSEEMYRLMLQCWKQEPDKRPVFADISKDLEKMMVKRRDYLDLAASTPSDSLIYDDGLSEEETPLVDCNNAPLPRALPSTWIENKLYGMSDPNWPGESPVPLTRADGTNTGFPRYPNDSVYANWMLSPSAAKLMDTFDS

For `Cn1cc(-n2cnc3c(NCc4nc5cc(Cl)c(Cl)cc5[nH]4)nc(N4CCOCC4)nc32)cn1`, the % of inhibition in experiment [1] was -10.5%.
For the compound `N#Cc1cccc(-c2c[nH]c3ncnc(N4CCOCC4)c23)c1`, the % of control in experiment [2] was 100%.
`CCN(CC)CCCCNc1ncc2cc(-c3cc(OC)cc(OC)c3)c(NC(=O)NC(C)(C)C)nc2n1` had a % of control in [3] of 100%.
In experiment [4], `Cc1cc([C@@H](C)Nc2ccccc2C(=O)O)c2nc(N3CCOCC3)cc(=O)n2c1` [AZD-6482] displayed a % of control of 98%.
In experiment [5], `Cc1cnc(Nc2ccc(F)cc2Cl)nc1-c1c[nH]c(C(=O)N[C@H](CO)c2cccc(Cl)c2)c1` came in with an inhibition constant (Ki) of 400 nM.
As to `CC[C@@H]1[C@H](F)C(=O)N[C@@H]1COc1nccc2cc(C(N)=O)c(OC)cc12` [ZIMLOVISERTIB], the % of inhibition in experiment [6] is -11.5%.
Consider `CN1Cc2nccc(-c3cn(C)nc3-c3ccc(F)cc3)c2C1=O`, for which, in [7], the IC50 stood at 861 nM.
`CN(C)C/C=C/C(=O)Nc1ccc(C(=O)N2CCCC(Nc3ncc(Cl)c(-c4c[nH]c5ccccc45)n3)C2)cc1` (centres undefined) had a % of control in experiment [8] of 89%.
Take `COc1cc(Nc2nc(C)cc(-c3cnn4nc(OC)ccc34)n2)cc(C(F)(F)F)c1`: the % of control in experiment [9] was found to be 100%.
Turning to `Cc1ccc(-c2ccc3c(ccc4sc5c(c43)NC[C@@H](C)NC5=O)n2)cn1`, the % of inhibition in experiment [10] is 46%.
`CCC(=O)N1CC[C@H](Nc2ncnc3c2CN(c2cnc(OC)c(C(F)(F)F)c2)CC3)C1` [LENIOLISIB]: the IC50 at Histamine H3 receptor was greater than 30000 nM.
In experiment [11], `CN(C)CCOc1ccc(-c2nc(-c3ccncc3)c(-c3ccc4c(c3)CC/C4=N\O)[nH]2)cc1` returned a % of control of 84%.
For the compound `O[C@H]1CC[C@H](Nc2ncc3nc(Nc4c(F)cc(F)cc4F)n([C@H]4CCOC4)c3n2)CC1`, the % of control in experiment [12] stood at 100%.
`CCn1c(-c2nc3cc(C(=O)N4CCCC(N)C4)ccc3n2C)cc2ccccc21` (centres undefined) showed a pXC50 in experiment [13] of 5.6 M.

Values taken from ChEMBL document CHEMBL5465560, “Selectivity Literature for EUbOPEN Chemogenomic Library” (2024).
